The values that follow come from PubChem BioAssay AID328 (DTP/NCI, 2004).

“And” between values parts separate entries of the source, which are not always exact repeats. Identical values can stand only once. Inconclusive results and toxic doses are left out.

In the assay the test system is BDF1 mice, P388 leukemia ip, median survival T/C. As to the kind of experiment: NCI In Vivo Anticancer Drug Screen. Data for tumor model P388 Leukemia (intraperitoneal) in B6D2F1 (BDF1) mice. Conditions: endpoint: median survival time, higher = longer survival. The essentials: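 Vehicle-dosed animals serve as the reference; survival of compound-dosed, tumour-implanted mice is divided by it.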

The mark [1] stands for this setting: dose: 12.5 mg/kg/injection, schedule: Q01DX009 (ip), vehicle: water.
Setting [2] is: dose: 25.0 mg/kg/injection, schedule: Q01DX009 (ip), vehicle: water.
Setting [3] is: dose: 50.0 mg/kg/injection, schedule: Q04DX003 (ip), vehicle: saline with Tween-80.
Setting [4] is: dose: 100.0 mg/kg/injection, schedule: Q04DX003 (ip), vehicle: saline with Tween-80.
[5] abbreviates: dose: 100.0 mg/kg/injection, schedule: Q01DX009 (ip), vehicle: saline with Tween-80.
The mark [6] stands for this setting: dose: 100.0 mg/kg/injection, schedule: Q01DX001 (ip), vehicle: saline with Tween-80.
[7] abbreviates: dose: 100.0 mg/kg/injection, schedule: Q04DX003 (ip), vehicle: Klucel (hydroxypropylcellulose) (HPC).
Setting [8] is: dose: 200.0 mg/kg/injection, schedule: Q04DX003 (ip), vehicle: Klucel (hydroxypropylcellulose) (HPC).
[9] abbreviates: dose: 400.0 mg/kg/injection, schedule: Q04DX003 (ip), vehicle: Klucel (hydroxypropylcellulose) (HPC).

For the molecule `NC(Cc1ccc(OC2CCCC2)c(N(CCCl)CCCl)c1)C(=O)O` (configuration not stated), the T/C reads like this: (dose: 0.5 mg/kg/injection, schedule: Q04DX003 (ip), vehicle: Klucel (hydroxypropylcellulose) (HPC)) 104 % of control; (dose: 1.0 mg/kg/injection, schedule: Q04DX003 (ip), vehicle: Klucel (hydroxypropylcellulose) (HPC)) 118 % of control; (dose: 2.5 mg/kg/injection, schedule: Q04DX003 (ip), vehicle: saline) 195 % of control; (dose: 5.0 mg/kg/injection, schedule: Q04DX003 (ip), vehicle: saline) 227 % of control; (dose: 7.5 mg/kg/injection, schedule: Q04DX003 (ip), vehicle: saline) 163 % of control; (dose: 15.0 mg/kg/injection, schedule: Q04DX003 (ip), vehicle: other) 179 % of control. Moreover, the T/C was 154 % of control (dose: 15.0 mg/kg/injection, schedule: Q04DX003 (ip), vehicle: saline); 87 % of control (dose: 20.0 mg/kg/injection, schedule: Q04DX003 (ip), vehicle: other); 168 % of control (dose: 30.0 mg/kg/injection, schedule: Q04DX003 (ip), vehicle: saline).
Take `BrCCC1(CCBr)CCCCC1`: the T/C by setting is: under setting [1], 113 % of control; under setting [2], 97 % of control; (dose: 50.0 mg/kg/injection, schedule: Q01DX009 (ip), vehicle: water) 96 % of control; (dose: 50.0 mg/kg/injection, schedule: Q04DX003 (ip), vehicle: water) 106 % of control; (dose: 100.0 mg/kg/injection, schedule: Q01DX009 (ip), vehicle: water) 99 % of control; (dose: 100.0 mg/kg/injection, schedule: Q04DX003 (ip), vehicle: water) 111 % of control. Moreover, the T/C (dose: 200.0 mg/kg/injection, schedule: Q01DX009 (ip), vehicle: water) is 108 % of control; the T/C (dose: 200.0 mg/kg/injection, schedule: Q04DX003 (ip), vehicle: water) is 106 % of control; the T/C (dose: 300.0 mg/kg/injection, schedule: Q04DX003 (ip), vehicle: water) is 107 % of control; the T/C (dose: 400.0 mg/kg/injection, schedule: Q01DX009 (ip), vehicle: water) is 118 % of control; the T/C (dose: 400.0 mg/kg/injection, schedule: Q04DX003 (ip), vehicle: water) was 122 % of control; the T/C (dose: 500.0 mg/kg/injection, schedule: Q04DX003 (ip), vehicle: water) was 109 % of control.
In the case of `O=S1(=O)C(Cc2ccccc2)CCCN1c1ccccc1` (configuration not stated), the T/C was 104 % of control (dose: 100.0 mg/kg/injection, schedule: Q04DX002 (ip), vehicle: saline with Tween-80); 104 % of control (dose: 200.0 mg/kg/injection, schedule: Q04DX002 (ip), vehicle: saline with Tween-80); 102 % of control (dose: 400.0 mg/kg/injection, schedule: Q04DX002 (ip), vehicle: saline with Tween-80).
As to `COc1ccc(C(=O)CCCCl)cc1`, the T/C was 100 % of control (dose: 100.0 mg/kg/injection, schedule: Q01DX009 (ip), vehicle: Klucel (hydroxypropylcellulose) (HPC)); 110 % of control (dose: 200.0 mg/kg/injection, schedule: Q01DX009 (ip), vehicle: Klucel (hydroxypropylcellulose) (HPC)); 95 % of control (dose: 400.0 mg/kg/injection, schedule: Q01DX009 (ip), vehicle: Klucel (hydroxypropylcellulose) (HPC)).
Regarding `CCN(CC)c1c(C)nnc2c3c(-c4ccccc4)c(-c4ccccc4)nnc3nn12`, the T/C was 91 % of control and 97 % of control (2×) under setting [3]; 88 % of control and 91 % of control and 97 % of control under setting [4]; 97 % of control and 108 % of control and 123 % of control (dose: 200.0 mg/kg/injection, schedule: Q04DX003 (ip), vehicle: saline with Tween-80); 92 % of control and 113 % of control (dose: 400.0 mg/kg/injection, schedule: Q04DX003 (ip), vehicle: saline with Tween-80).
With `CCCCCCCC(=O)N/N=C(\CO)[C@]1(O)Cc2c(O)c3c(c(O)c2[C@@H](OC2CC(N)C(O)C(C)O2)C1)C(=O)c1c(OC)cccc1C3=O` (some centres not stated), the T/C (dose: 0.78 mg/kg/injection, schedule: Q01DX009 (ip), vehicle: water) is 114 % of control; the T/C (dose: 1.56 mg/kg/injection, schedule: Q01DX009 (ip), vehicle: water) is 183 % of control; the T/C (dose: 3.12 mg/kg/injection, schedule: Q01DX009 (ip), vehicle: water) is 106 % of control and 222 % of control; the T/C (dose: 6.25 mg/kg/injection, schedule: Q01DX009 (ip), vehicle: water) is 163 % of control and 200 % of control; the T/C under setting [1] was 117 % of control and 204 % of control; the T/C under setting [2] was 104 % of control.
`COc1ccc(C(=O)C[N+](=O)[O-])cc1`: the T/C runs as follows: under setting [5], 110 % of control; (dose: 200.0 mg/kg/injection, schedule: Q01DX009 (ip), vehicle: saline with Tween-80) 100 % of control; (dose: 400.0 mg/kg/injection, schedule: Q01DX009 (ip), vehicle: saline with Tween-80) 100 % of control.
Take `CS(=O)(=O)OCCSc1nc2ccccc2n1Cc1ccccc1`: the T/C by setting is: (dose: 25.0 mg/kg/injection, schedule: Q01DX001 (ip), vehicle: saline with Tween-80) 100 % of control; (dose: 50.0 mg/kg/injection, schedule: Q01DX001 (ip), vehicle: saline with Tween-80) 106 % of control; under setting [6], 101 % of control.
On to `CCCC(=O)c1c(C)cc(C)cc1C`, for which the T/C by setting is: under setting [7], 110 % of control; under setting [8], 110 % of control; under setting [9], 120 % of control.
Take `CC(=O)OC(C(=O)c1ccccc1)c1ccccc1` (configuration not stated): the T/C was 95 % of control under setting [7], 104 % of control under setting [8] and 108 % of control under setting [9].
With `C/C(=N\NC(=S)N(C)C)c1ccccn1`, the T/C was 105 % of control (dose: 1.56 mg/kg/injection, schedule: Q01DX009 (ip), vehicle: saline with Tween-80) and 100 % of control (dose: 3.12 mg/kg/injection, schedule: Q01DX009 (ip), vehicle: saline with Tween-80).
Consider `COC(=O)Nc1cccc(NC(=O)C(=O)O)c1`, for which the T/C under setting [3] was 100 % of control and the T/C under setting [4] is 100 % of control.
For `CC1CCC(NC2=NCCO2)C1` (configuration not stated), the T/C runs as follows: under setting [6], 87 % of control; (dose: 200.0 mg/kg/injection, schedule: Q01DX001 (ip), vehicle: saline with Tween-80) 91 % of control; (dose: 400.0 mg/kg/injection, schedule: Q01DX001 (ip), vehicle: saline with Tween-80) 95 % of control.
In the case of `Cc1c(C(=O)O)cc2n(c1=O)Cc1cc3ccccc3nc1-2`, the T/C runs as follows: (dose: 50.0 mg/kg/injection, schedule: Q01DX009 (ip), vehicle: saline) 95 % of control; (dose: 50.0 mg/kg/injection, schedule: Q04DX003 (ip), vehicle: saline) 92 % of control; (dose: 100.0 mg/kg/injection, schedule: Q01DX009 (ip), vehicle: saline) 113 % of control; (dose: 100.0 mg/kg/injection, schedule: Q04DX003 (ip), vehicle: saline) 100 % of control; (dose: 200.0 mg/kg/injection, schedule: Q01DX009 (ip), vehicle: saline) 100 % of control; (dose: 200.0 mg/kg/injection, schedule: Q04DX003 (ip), vehicle: saline) 96 % of control.
As for `C/C=C/C=C/C(=O)c1ccc(OC)cc1O`, the T/C reads like this: (dose: 50.0 mg/kg/injection, schedule: Q01DX009 (ip), vehicle: saline with Tween-80) 109 % of control; under setting [5], 109 % of control.
For the molecule `CNc1n[n+](-c2ccccc2)no1`, the T/C runs as follows: (dose: 3.12 mg/kg/injection, schedule: Q01DX009 (ip), vehicle: saline) 115 % of control; (dose: 6.25 mg/kg/injection, schedule: Q01DX009 (ip), vehicle: saline) 101 % of control and 120 % of control; (dose: 6.25 mg/kg/injection, schedule: Q04DX003 (ip), vehicle: saline) 102 % of control; (dose: 12.5 mg/kg/injection, schedule: Q04DX003 (ip), vehicle: saline) 96 % of control; (dose: 25.0 mg/kg/injection, schedule: Q04DX003 (ip), vehicle: saline) 104 % of control and 107 % of control.
For `c1ccc(-c2[nH]c3ccccc3c2-c2ccccc2)cc1`, the T/C is 109 % of control (dose: 100.0 mg/kg/injection, schedule: Q01DX001 (ip), vehicle: Klucel (hydroxypropylcellulose) (HPC)); 113 % of control (dose: 200.0 mg/kg/injection, schedule: Q01DX001 (ip), vehicle: Klucel (hydroxypropylcellulose) (HPC)); 122 % of control (dose: 400.0 mg/kg/injection, schedule: Q01DX001 (ip), vehicle: Klucel (hydroxypropylcellulose) (HPC)).
